Results: patent publication US9138421B2, “Platinum compounds for treating cell proliferative diseases, preparation method and use thereof” (priority 2011, dated 2015)
Marks after values point to notes of the source that are not given here.

Assays:
[1] = system: colon cancer SW480 cell line; experiment: In vivo antitumor activity, colon cancer SW480 in nude mice (2), dose series; details: 3 days, tumor weighed 24 hours after drug discontinuance
[2] = Acute toxic effect of platinum complex on normal mice (LD50); format: in vivo, Kunming mice; details: both sexes, Kunming, mouse, in vivo; single intravenous administration in 5% glucose, 14 days observation, Bliss method
Procedure: (§1) Test 1: Acute Toxic Effect of Platinum Complex on Normal Mice
(§2) Embodiment platinum compound was dissolved with 5% glucose solution. […] Mortality and toxicity were observed after administration.

[3] = system: lung cancer H292 cell line; experiment: In vivo antitumor activity, lung cancer H292 in nude mice; details: H292, 15 mg/kg, every 2 days, 4 times, end 30 days after inoculation
colon cancer SW480 = experiment: MTT cytotoxicity, colon cancer SW480; format: cell-based; details: n = 6
Procedure: (§3) The toxic action of Embodiment platinum containing compounds was observed on tumor cells by MTT colorimetric method. Several kinds of tumor cells in exponential growth phase were prepared into single cell suspension, inoculated on 96 pore plat at the density of 4×10^4/hole, cultivated for 24 hours to enable to adhere to wall with 1640 culture medium containing 10% fetal calf serum (complete medium) at 37° C.; the final culture volume was 100 μl. Cell morphology was observed after culture for 24 hours.

[4] = system: Pulmonary epithelial cell BEAS-2B; experiment: MTT cytotoxicity, pulmonary epithelial cell BEAS-2B; format: cell-based; details: n = 6
Procedure: as §3

lung cancer H292 = experiment: MTT cytotoxicity, lung cancer H292; format: cell-based; details: n = 6
Procedure: as §3

normal mice = experiment: Acute toxic effect of platinum complex on normal mice (LD50); format: in vivo, Kunming mice; details: single intravenous administration in 5% glucose, 14 days observation, Bliss method
Procedure: as §1, §2

lung cancer Lewis = experiment: MTT cytotoxicity, lung cancer Lewis; format: cell-based; details: n = 6
Procedure: as §3

gastric cancer MGC803 = experiment: MTT cytotoxicity, gastric cancer MGC803; format: cell-based; details: n = 6
Procedure: as §3

testis cell ST = experiment: MTT cytotoxicity, testis cell ST; format: cell-based; details: n = 6
Procedure: as §3

[5] = system: breast cancer MCF-7 tumor cell line; experiment: In vivo antitumor activity, breast cancer MCF-7 in nude mice; details: MCF-7, 15 mg/kg, every 2 days, 4 times, end 30 days after inoculation
esophagus cancer ECA109 = experiment: MTT cytotoxicity, esophagus cancer ECA109; format: cell-based; details: n = 6
Procedure: as §3

Row | Molecule | LD50 at 14 days [2] [µmol/kg] | solubility (Solubility in water; water) [mg/mL] | tumor inhibition rate (%) [3] | IC50 (colon cancer SW480) [µM] | IC50 (lung cancer H292) [µM] | LD50 value (normal mice) [mmol/kg] | IC50 (gastric cancer MGC803) [µM] | IC50 (testis cell ST) [µM] | tumor inhibition rate (%) [5] [%] | further results
1 | N.N.[Cl][Pt][Cl] [cisplatin, Cis-dichlorodiamminoplatinum, reference compound] | – | – | – | – | – | – | – | – | – | tumor inhibition rate (%) (x ±SD) ([1]; SW480, 3 mg/kg): 62.9 ± 9.01%; tumor inhibition rate (%) (x ±SD) ([1]; SW480, 5 mg/kg): 71.1 ± 10.76%
2 | CNCCC1C(=O)[O][Pt]([NH2])([NH2])[O]C1=O [compound 1, [2-(2-methylamine ethyl)-malonato].[cis-diamino]platinum (II) phosphate] | 722 | 221 | – | – | – | – | – | – | – | –
3 | CN(C)CCC1C(=O)[O][Pt]([NH2])([NH2])[O]C1=O [compound 2, [2-(2-dimethylamine ethyl)-malonato].[cis-diamine] platinum (II) acetate] | 791 | 198 | – | – | – | – | – | – | – | –
4 | CN(C)CCCC1C(=O)[O][Pt]([NH2])([NH2])[O]C1=O [compound 3, [2-(3-dimethylamine propyl)-malonato].[cis-diamine] platinum (II) phosphate] | 824 | 164 | – | – | – | – | – | – | – | –
5 | NCCCC1C(=O)[O][Pt]([NH2])([NH2])[O]C1=O [compound 4, [2-(3-amino propyl)-malonato].[cis-diamine] platinum (II) phosphate] | 802 | 176 | – | – | – | – | – | – | – | –
6 | CCN(CC)CCC1C(=O)[O][Pt]([NH2])([NH2])[O]C1=O [compound 5, [2-(2-diethylamine ethyl)-malonato].[cis-diamine] platinum (II) phosphate] | 853 | 187 | – | – | – | – | – | – | – | –
7 | CCN(CC)CCCC1C(=O)[O][Pt]([NH2])([NH2])[O]C1=O [compound 6, 2-(3-diethylaminepropyl)-malonic-cis-diamino platinum (II) phosphate] | 749 | 165 | – | – | – | – | – | – | – | –
8 | CN(C)CCC1C(=O)[O][Pt]2([NH]C3CCCCC3[NH]2)[O]C1=O (stereo not drawn) [compound 10, [2-(2-dimethylamino ethyl)-malonato].[cis-(1,2-trans-cyclohexanediamine)] platinum (II)] | – | – | 55.3 ± 11.21 ^ % | 94 | 54 | 0.593 | – | – | – | IC50 [4]: 220 µM; IC50 (lung cancer Lewis): 143 µM
9 | CCN(CC)CCC1C(=O)[O][Pt]2([NH]C3CCCCC3[NH]2)[O]C1=O.O=C(O)CC(O)(CC(=O)O)C(=O)O (stereo not drawn) [compound 13, [2-(2-diethylamine ethyl)-malonato].[cis-(1,2-trans-cyclohexamethylenediamine)]platinum (II) citrate] | – | – | 56.1 ± 9.81 ^ % | 80 | 316 | – | – | – | – | IC50 [4]: 145 µM; IC50 (lung cancer Lewis): 36 µM
10 | CCN(CC)CCCC1C(=O)[O][Pt]2([NH]C3CCCCC3[NH]2)[O]C1=O.O=P(O)(O)O (stereo not drawn) [compound 14, [2-(3-diethylamine propyl)-malonato].[cis-(1,2-trans-cyclohexamethylenediamine)]platinum (II) phosphate] | – | – | 39.8 ± 8.51 % | 78 | 161 | 0.902 | 213 | 251 | – | –
11 | CCCN(CCC)CCC1C(=O)[O][Pt]2([NH]C3CCCCC3[NH]2)[O]C1=O.O=P(O)(O)O (stereo not drawn) [compound 15, [2-(2-di-n-propylamine ethyl)-malonato].[cis-(1,2-trans-cyclohexamethylenediamine)]platinum (II) phosphate] | – | – | 59.0 ± 11.02 ^ % | 92 | 651 | 0.469 | 149 | 12 | – | –
12 | CCN(CC)CCCC1C(=O)[O][Pt]2([NH]C3CCC3[NH]2)[O]C1=O.O=C(O)CCC(=O)O (stereo not drawn) [compound 18, 2-(3-diethylaminepropyl)-malonic.cis-(1,2-trans-aminocyclobutyl) platinum (II) succinate] | – | – | – | 281 | 224 | – | 367 | 147 | 45.0 ± 9.87 | –
13 | CCN(CC)CCCC1C(=O)[O][Pt]2([NH]C3CC3[NH]2)[O]C1=O.O=P(O)(O)O (stereo not drawn) [compound 19, [2-(3-diethylamine propyl)-malonato].[cis-(1,2-trans-cyclopropyldiamine)]platinum (II) phosphate] | – | – | – | – | 62 | 0.802 | 213 | 251 | 52.6 ± 10.5 | IC50 (esophagus cancer ECA109): 88 µM; solubility (Solubility in water; in water): 218 mg/mL
14 | CCN(CC)CCC1C(=O)[O][Pt]2([NH]CCC[NH]2)[O]C1=O.O=P(O)(O)O [compound 21, [2-(2-diethylamine ethyl)-malonato].[cis-1,3-propyldiamine] platinum (II) phosphate] | – | – | – | – | 205 | 0.716 | 216 | 16 | 40.3 ± 9.65 | IC50 (esophagus cancer ECA109): 174 µM; solubility (Solubility in water; in water): 231 mg/mL
15 | [NH2][Pt]1([NH2])[O]C(=O)C(CCCN2CCCCC2)C(=O)[O]1 [compound 29, [2-(3-(1-piperidyl)-propyl)-malonato].[cis-diamine]platinum (II) phosphate] | 784 | 159 | – | – | – | – | – | – | – | –
16 | [NH2][Pt]1([NH2])[O]C(=O)C(CCCN2CCCC2)C(=O)[O]1 [compound 30, [2-(3-(1-pyrrolidyl)-propyl)-malonato].[cis-diamine] platinum (II) phosphate] | 802 | 160 | – | – | – | – | – | – | – | –
17 | [2-(2-amino ethyl)-malonato].[cis-(1,2-trans-cyclohexamethylene diamine)]platinum (II) phosphate [compound 9] | – | – | 79.2 ± 14.99 % | 71 | 63 | 0.724 | – | – | – | IC50 [4]: 57 µM; solubility (Solubility in water; in water): 275 mg/mL; IC50 (lung cancer Lewis): 69 µM
18 | [2-(2-di-n-propylamine ethyl)-malonato].[cis-1,4-butanediamine] platinum (II) phosphate [compound 22] | – | – | – | – | 102 | 0.882 | 556 | 302 | 40.9 ± 8.97 | IC50 (esophagus cancer ECA109): 215 µM
19 | [2-(2-diethylamine ethyl)-malonato].[cis-1,2-(1,2-dihydroxymethyl)-ethyldiamine]platinum (II) phosphate [compound 23] | – | – | – | – | 84 | 0.702 | 367 | 147 | 44.1 ± 15.12 | IC50 (esophagus cancer ECA109): 212 µM
20 | [2-(2-dimethylamine ethyl)-malonato].[cis-1,2-ethylenediamine] platinum (II) tosilate [compound 20] | – | – | – | – | 351 | 0.753 | 149 | 12 | 54.52 ± 10.25 | IC50 (esophagus cancer ECA109): 193 µM
21 | [2-(2-dimethylamine ethyl)-malonato].[cis-1,3-(2,2-hydroxymethyl)-propane diamine]platinum (II) phosphate [compound 24] | – | – | – | – | 65 | 0.509 | 217 | 153 | 44.8 ± 11.31 | IC50 (esophagus cancer ECA109): 125 µM
22 | [2-(2-ethylamine ethyl)-malonato].[cis-(1,2-trans-cyclohexamethylene diamine)]platinum (II) phosphate [compound 12] | – | – | 76.3 ± 20.67*^ % | 203 | 241 | 0.609 | – | – | – | IC50 [4]: 15 µM; solubility (Solubility in water; in water): 221 mg/mL; IC50 (lung cancer Lewis): 57 µM
23 | [2-(3-di-n-propylamine propyl)-malonato].[cis-(1, 2-trans-cyclohexamethylene diamine)]platinum (II) phosphate [compound 16] | – | – | 35.2 ± 6.43 % | 77 | 402 | 0.524 | 216 | 16 | – | –
24 | [2-(3-diethylamine propyl)-malonato].[cis-(1,2-trans-diaminocyclopentane)]platinum (II) phosphate [compound 17] | – | – | – | 205 | 249 | 0.616 | 556 | 302 | 39.8 ± 12.12 | –
25 | [2-(3-dimethylamine propyl)-malonato].[cis-(1,2-trans-cyclohexamethylene diamine)]platinum (II) phosphate [compound 11] | – | – | 35.9 ± 7.13 % | 57 | 6 | 0.509 | – | – | – | IC50 [4]: 168 µM; IC50 (lung cancer Lewis): 213 µM
